In patent US20110117081A1, “FUNCTIONALIZED PYRROLIDINES AND USE THEREOF AS IAP INHIBITORS” (priority 2008, published 2011) one finds EC50 data, which are given here for 20 compounds.

Each structure is given as a SMILES string. pEC50: −log10 of the molar value.

The pEC50 is the EC50 on a negative log10 scale, so that one unit is a factor of ten.

Assay [1] concerns Colorectal carcinoma HCT116 cells. Kind of assay: HCT116 + ETR1 cell viability assay (MTT). It counts as cell-based. To be noted: with ETR1 (40 ng/ml), 72 hrs. As to the method:
Colorectal carcinoma HCT116 cells (ATCC# CCL-247) were cultured as monolayers in 96 well plates at a density of 2000 cells per well in 100 ul of McCoy's 5a medium (HyClone) supplemented with 2.2 g/L sodium bicarbonate (Gibco), 10% FBS (HyClone) and 1% penecillin/streptomycin (HyClone) for 24 hours. Triplicate wells of cells were treated for 72 hrs at 37° C. (5% CO2) with 50 ul of HGS agonistic Trail receptor antibody, ETR1 (40 ng/ml) in combination with 50 ul of diluted compound (0.01 to 10000 nM). Metabolic viability of remaining cells was assessed by MTT assay.
(§1) The percentage viability of compound-treated cells was expressed as a fraction of the absorbance/luminescence signal obtained from non-treated cells. EC50 values (corresponding to 50% cell survival in the presence of compound as compared to untreated controls) were calculated from MTT survival curves (HCT116 and SKOV3) using BioAssay software (CambridgeSoft) and from Cell Titer-Glo survival curves (synovioycte and Jurkat cells) using GraphPad Prism (Graph Pad Software Inc.). In the below chart, EC50 values are summarized as follows: a=EC50 of less than 10 nM; b=EC50 of 10-100 nM; and c=EC50 of greater than 100 nM.

In assay [2] the test system is Ovarian adenocarcinoma SKOV3 cells. Kind of assay: SKOV3 cell viability assay (MTT). The format is cell-based. To be noted: Homo sapiens, SK-OV-3, 72 hours. The procedure:
Ovarian adenocarcinoma SKOV3 cells (ATCC# HTB-77) were cultured as monolayers in McCoy's 5a medium (HyClone) supplemented with 2.2 g/L sodium bicarbonate (Gibco), 10% FBS (HyClone) and 1% penicillin/streptomycin (HyClone). Cells were seeded in tissue culture-treated 96 well plates at 5000 cells/well in 150 ul of media. After 24 hours, triplicate wells of cells were treated with various concentrations of compound (0.01 to 10000 nM) diluted in 50 ul of culture media. Cells were incubated at 37° C. (5% CO2) in the presence of compound for 72 hours. Metabolic viability of remaining cells was assessed by MTT (thiazolyl blue tetrazolium bromide, Sigma) assay. 20 ul of MTT reagent (10 mg/ml) was added per well and plates were incubated for 4 hours at 37° C. (5% CO2). The supernatant was then removed from the plate. The converted MTT product was solubilized with 100 uL of isopropanol and the absorbance was read at 570 nm using a Tecan spectrophotometer.
as §1

On to `CN[C@@H](C)C(=O)N[C@H](C(=O)N1C[C@@H](NC(=O)C2CCC(C(=O)N[C@H]3C[C@@H](C(=O)NC4c5ccccc5-c5ccccc54)N(C(=O)[C@@H](NC(=O)[C@H](C)NC)C4CCCCC4)C3)CC2)C[C@H]1C(=O)NC1c2ccccc2-c2ccccc21)C1CCCCC1` (stereo partly shown) [Compound 2], for which the pEC50 is more than 8.00 in assay [1] and 7.00 to 8.00 in assay [2].
Turning to `CN[C@@H](C)C(=O)N[C@H](C(=O)N1C[C@@H](NC(=O)C2CCC(C(=O)N[C@H]3C[C@@H](C(=O)N[C@@H]4CCCc5ccccc54)N(C(=O)[C@@H](NC(=O)[C@H](C)NC)C4CCCCC4)C3)CC2)C[C@H]1C(=O)N[C@@H]1CCCc2ccccc21)C1CCCCC1` (stereo partly shown) [Compound 4], the pEC50 in assay [1] and in assay [2] was more than 8.00 each time.
For the compound `CN[C@@H](C)C(=O)N[C@H](C(=O)N1C[C@@H](NC(=O)c2ccc(C(=O)N[C@H]3C[C@@H](C(=O)NC(c4ccccc4)c4ccccc4)N(C(=O)[C@@H](NC(=O)[C@H](C)NC)C4CCCCC4)C3)cc2)C[C@H]1C(=O)NC(c1ccccc1)c1ccccc1)C1CCCCC1` [Compound 5], the pEC50 in assay [1] and in assay [2] was more than 8.00 each time.
Regarding `CN[C@@H](C)C(=O)N[C@H](C(=O)N1C[C@@H](NC(=O)c2ccc(C(=O)N[C@H]3C[C@@H](C(=O)N[C@@H]4CCc5ccccc54)N(C(=O)[C@@H](NC(=O)[C@H](C)NC)C4CCCCC4)C3)cc2)C[C@H]1C(=O)N[C@@H]1CCc2ccccc21)C1CCCCC1` [Compound 6], the pEC50 in assay [1] and in assay [2] was more than 8.00 in each case.
Turning to `CN[C@@H](C)C(=O)N[C@H](C(=O)N1C[C@@H](NC(=O)c2ccc(C(=O)N[C@H]3C[C@@H](C(=O)N[C@H](CCCc4ccccc4)c4ccccc4)N(C(=O)[C@@H](NC(=O)[C@H](C)NC)C4CCCCC4)C3)cc2)C[C@H]1C(=O)N[C@H](CCCc1ccccc1)c1ccccc1)C1CCCCC1` [Compound 8], the pEC50 in assay [1] is 7.00 to 8.00; in assay [2], less than 7.00.
On to `CN[C@@H](C)C(=O)N[C@H](C(=O)N1C[C@@H](NC(=O)c2ccc(-c3ccc(C(=O)N[C@H]4C[C@@H](C(=O)N[C@@H]5CCCc6ccccc65)N(C(=O)[C@@H](NC(=O)[C@H](C)NC)C5CCCCC5)C4)cc3)cc2)C[C@H]1C(=O)N[C@@H]1CCCc2ccccc21)C1CCCCC1` [Compound 9], for which the pEC50 in assay [1] and in assay [2] was more than 8.00 throughout.
Turning to `CN[C@@H](C)C(=O)N[C@H](C(=O)N1C[C@@H](NC(=O)c2ccc(-c3ccc(C(=O)N[C@H]4C[C@@H](C(=O)N[C@@H]5CCc6ccccc65)N(C(=O)[C@@H](NC(=O)[C@H](C)NC)C5CCCCC5)C4)cc3)cc2)C[C@H]1C(=O)N[C@@H]1CCc2ccccc21)C1CCCCC1` [Compound 10], the pEC50 in assay [1] and in assay [2] was more than 8.00 each time.
Take `CN[C@@H](C)C(=O)N[C@H](C(=O)N1C[C@@H](NC(=O)c2ccc(-c3ccc(C(=O)N[C@H]4C[C@@H](C(=O)NC(c5ccccc5)c5ccccc5)N(C(=O)[C@@H](NC(=O)[C@H](C)NC)C5CCCCC5)C4)cc3)cc2)C[C@H]1C(=O)NC(c1ccccc1)c1ccccc1)C1CCCCC1` [Compound 11]: the results for the pEC50 in assay [1] and in assay [2] were more than 8.00 and 7.00 to 8.00, respectively.
For the compound `CN[C@@H](C)C(=O)N[C@H](C(=O)N1C[C@@H](NC(=O)c2ccc(C(=O)N[C@H]3C[C@@H](C(=O)N[C@@H]4CCCc5ccccc54)N(C(=O)[C@@H](NC(=O)[C@H](C)NC)C4CCOCC4)C3)cc2)C[C@H]1C(=O)N[C@@H]1CCCc2ccccc21)C1CCOCC1` [Compound 46], in assay [1], the negative logarithm of the EC50 (pEC50) was 7.00 to 8.00.
For the compound `CN[C@@H](C)C(=O)N[C@H](C(=O)N1C[C@@H](NC(=O)c2ccc(C(=O)N[C@H]3C[C@@H](C(=O)Nc4ccccc4)N(C(=O)[C@@H](NC(=O)[C@H](C)NC)C4CCCCC4)C3)cc2)C[C@H]1C(=O)Nc1ccccc1)C1CCCCC1` [Compound 47], the pEC50 in assay [1] was more than 8.00.
For the compound `CN[C@@H](C)C(=O)N[C@H](C(=O)N1C[C@@H](NC(=O)c2ccc(C(=O)N[C@H]3C[C@@H](C(=O)N(C)[C@H](C)c4ccccc4)N(C(=O)[C@@H](NC(=O)[C@H](C)NC)C4CCCCC4)C3)cc2)C[C@H]1C(=O)N(C)[C@H](C)c1ccccc1)C1CCCCC1` [Compound 48], the pEC50 in assay [1] is 7.00 to 8.00.
Turning to `CN[C@@H](C)C(=O)N[C@H](C(=O)N1C[C@@H](NC(=O)c2ccc(C(=O)N[C@H]3C[C@@H](C(=O)Nc4cc(C)nn4-c4ccccc4)N(C(=O)[C@@H](NC(=O)[C@H](C)NC)C4CCCCC4)C3)cc2)C[C@H]1C(=O)Nc1cc(C)nn1-c1ccccc1)C1CCCCC1` [Compound 49], in assay [1], the pEC50 was 7.00 to 8.00.
On the same count and under the same terms, in the case of `CN[C@H](C(=O)N[C@H](C(=O)N1C[C@@H](NC(=O)c2ccc(C(=O)N[C@H]3C[C@@H](C(=O)N[C@@H]4CCCc5ccccc54)N(C(=O)[C@@H](NC(=O)[C@@H](NC)C4CC4)C4CCCCC4)C3)cc2)C[C@H]1C(=O)N[C@@H]1CCCc2ccccc21)C1CCCCC1)C1CC1` [Compound 50] it was 7.00 to 8.00; in that of `CN[C@@H](C)C(=O)N[C@H](C(=O)N1C[C@@H](NC(=O)c2ccc(C(=O)N[C@H]3C[C@@H](C(=O)Nc4ccccc4-c4ccccc4)N(C(=O)[C@@H](NC(=O)[C@H](C)NC)C4CCCCC4)C3)cc2)C[C@H]1C(=O)Nc1ccccc1-c1ccccc1)C1CCCCC1` [Compound 52], more than 8.00.
For the compound `CCN[C@@H](C)C(=O)N[C@H](C(=O)N1C[C@@H](NC(=O)c2ccc(C(=O)N[C@H]3C[C@@H](C(=O)N[C@@H]4CCCc5ccccc54)N(C(=O)[C@@H](NC(=O)[C@H](C)NCC)C4CCCCC4)C3)cc2)C[C@H]1C(=O)N[C@@H]1CCCc2ccccc21)C1CCCCC1` [Compound 53], in assay [1], the pEC50 was more than 8.00.
With `CN[C@@H](C)C(=O)N[C@H](C(=O)N1C[C@@H](NC(=O)c2cnc(C(=O)N[C@H]3C[C@@H](C(=O)N[C@@H]4CCOc5ccccc54)N(C(=O)[C@@H](NC(=O)[C@H](C)NC)C4CCCCC4)C3)cn2)C[C@H]1C(=O)N[C@@H]1CCOc2ccccc21)C1CCCCC1` [Compound 54], the negative logarithm of the EC50 (pEC50) in assay [1] is more than 8.00.
Consider `CN[C@@H](C)C(=O)N[C@H](C(=O)N1C[C@@H](NC(=O)c2cnc(C(=O)N[C@H]3C[C@@H](C(=O)N[C@@H]4CCCc5ccccc54)N(C(=O)[C@@H](NC(=O)[C@H](C)NC)C4CCCCC4)C3)cn2)C[C@H]1C(=O)N[C@@H]1CCCc2ccccc21)C1CCCCC1` [Compound 55], for which the pEC50 in assay [1] is more than 8.00.
In the case of `CCCN[C@@H](C)C(=O)N[C@H](C(=O)N1C[C@@H](NC(=O)c2ccc(C(=O)N[C@H]3C[C@@H](C(=O)N[C@@H]4CCCc5ccccc54)N(C(=O)[C@@H](NC(=O)[C@H](C)NCCC)C4CCCCC4)C3)cc2)C[C@H]1C(=O)N[C@@H]1CCCc2ccccc21)C1CCCCC1` [Compound 56], in assay [1], the negative logarithm of the EC50 (pEC50) is more than 8.00.
Consider `CN[C@@H](C)C(=O)N[C@H](C(=O)N1C[C@@H](NC(=O)c2ccc(C(=O)N[C@H]3C[C@@H](C(=O)N[C@H]4CCCc5ccccc54)N(C(=O)[C@@H](NC(=O)[C@H](C)NC)C4CCCCC4)C3)cc2)C[C@H]1C(=O)N[C@H]1CCCc2ccccc21)C1CCCCC1` [Compound 57], for which the pEC50 in assay [1] is 7.00 to 8.00.
Take `CN[C@@H](C)C(=O)N[C@H](C(=O)N1C[C@@H](NC(=O)c2ccc(C(=O)N[C@H]3C[C@@H](C(=O)N[C@H]4CCOc5ccccc54)N(C(=O)[C@@H](NC(=O)[C@H](C)NC)C4CCCCC4)C3)cc2)C[C@H]1C(=O)N[C@H]1CCOc2ccccc21)C1CCCCC1` [Compound 58]: the negative logarithm of the EC50 (pEC50) in assay [1] is 7.00 to 8.00.
